Results published in paper PMC11857742, “Antiaging Potential of Lipophilic Extracts of Caulerpa prolifera” (Marine Drugs, 2025).

Target: T1, collagenase
T1 construct: gene colG; usual product is native clostridial collagenase
Experiment: FALGPA hydrolysis, ninhydrin detection at […] nm
Format: biochemical
Settings: pH 7.4, 37 °C, TES, calcium chloride; chelates the metal cofactor

## O=C(O)CN(CCN(CC(=O)O)CC(=O)O)CC(=O)O [EDTA]
  Collagenase / IC50: 51.2 ± 0.12 µg/mL
